Data as given in article PMC3121759 (PLoS ONE, 2011).

Columns and labels:
Serotonin 5-HT1A = assay: Radioligand binding, [3H]8-OH DPAT; conditions: duplicate
Procedure: (§1) Table S1. Inhibition effect of CHIBA-3007 (1 µM) on radioligand binding to various receptors
(§2) Test substance concentration: 1 µM, Positive substance concentration : 10 µM
(§3) Data are expressed as the mean values of duplicate samples.
(§4) The % inhibition was calculated from “100 – binding ratio”.
(§5) Binding ratio: [(B - N) / (B0 - N)] × 100 (%) B: Bound radioactivity in the presence of test substance and positive substance (individual value), B0: Total bound radioactivity in the absence of test substance and positive substance (mean value), N: Non-specific bound radioactivity (mean value)

[1] = test system: Glycine (Strychnine sensitive); assay: Radioligand binding, [3H]Strychnine; conditions: duplicate
Procedure: as §1, §2, §3, §4, §5

Muscarinic M2 = assay: Radioligand binding, [3H]AF-DX-384; conditions: Muscarinic M2, [3H]AF-DX-384, 1 µM, duplicate
Procedure: as §1, §2, §3, §4, §5

Nicotinic Ni = assay: Radioligand binding, [3H]Nicotine; conditions: duplicate
Procedure: as §1, §2, §3, §4, §5

GABA- A (BZ central) = assay: Radioligand binding, [3H]Flunitrazepam; conditions: duplicate
Procedure: as §1, §2, §3, §4, §5

Histamine H3 = assay: Radioligand binding, [3H]N-methyl histamine; conditions: Histamine H3, [3H]N-methyl histamine, duplicate
Procedure: as §1, §2, §3, §4, §5

Adenosine A1 = assay: Radioligand binding, [3H]DPCPX; conditions: Adenosine A1, [3H]DPCPX, duplicate
Procedure: as §1, §2, §3, §4, §5

GlyT-1 [2] = target: T1, GlyT-1 (Rattus norvegicus, UniProt P28572); assay: Drug inhibition of [3H]CHIBA-3007 binding to rat brain membranes; conditions: [3H]CHIBA-3007 (1 nM), 120 min room temperature, mean ± S.E.M., n=3
T1 construct: the tissues of whole brains or each specific brain region were homogenized; from tissue; host or cells: rat brain (whole brain or dissected regions; male Crl:CD (SD) rats)
T1 sequence (P28572 1-638): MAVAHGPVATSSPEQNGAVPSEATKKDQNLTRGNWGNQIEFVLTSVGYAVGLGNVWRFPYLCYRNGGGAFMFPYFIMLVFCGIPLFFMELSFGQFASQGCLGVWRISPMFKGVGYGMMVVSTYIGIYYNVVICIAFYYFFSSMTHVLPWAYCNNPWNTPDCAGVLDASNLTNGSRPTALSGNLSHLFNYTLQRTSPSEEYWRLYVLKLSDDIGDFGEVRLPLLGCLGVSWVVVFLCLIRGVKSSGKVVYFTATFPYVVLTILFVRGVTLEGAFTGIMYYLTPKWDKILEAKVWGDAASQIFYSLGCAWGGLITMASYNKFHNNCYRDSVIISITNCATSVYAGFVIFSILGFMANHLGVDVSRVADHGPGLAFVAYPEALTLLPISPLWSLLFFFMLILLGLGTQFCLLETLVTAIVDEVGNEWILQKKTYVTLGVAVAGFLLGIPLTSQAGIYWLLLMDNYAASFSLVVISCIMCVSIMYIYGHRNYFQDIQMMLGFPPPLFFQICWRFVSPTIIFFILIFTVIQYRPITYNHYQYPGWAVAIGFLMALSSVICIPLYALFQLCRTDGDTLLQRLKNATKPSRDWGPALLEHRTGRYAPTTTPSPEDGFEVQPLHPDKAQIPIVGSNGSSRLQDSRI
Procedure: The supernatant was discarded and the pellet was re-suspended, homogenized and centrifuged as above. The membrane pellet was washed and re-suspended in ice-cold HEPES buffer and was then centrifuged three times. The final pellet was re-suspended in 15 volumes of the buffer (120 mM NaCl, 2 mM KCl, 1 mM CaCl2, 1 mM MgCl2 10 mM HEPES, pH 7.5 at room temperature).
The binding reaction was terminated by rapid vacuum filtration onto Whatman GF/B glass filters pretreated with 0.5% polyethyleneimine (Sigma-Aldrich Co.) using a 24-channel cell harvester (Brandell, Gaithersburg, MD). The filters were washed with 5 mL of ice-cold assay buffer 3 times, and placed in vials with 4 mL scintillation cocktail. The radioactivity trapped by the filters was determined using a liquid scintillation counter (Beckman LS-6500; Beckman Coulter K.K., Tokyo, Japan).
(§6) The data are shown as the mean ± standard error of the mean (S.E.M.). The dissociation constant (Kd) and maximal binding (Bmax) values from saturation binding and the IC50 values from binding displacement by each drug were determined using the program GraphPad Prism (GraphPad Software, San Diego, CA). […] Correlation was analyzed by Pearson's Correlation Coefficient (PASW Statistics 19, Tokyo, Japan). Significance was set at p<0.05.

[3] = test system: Glutamate (Non-selective); assay: Radioligand binding, [3H]Glutamic acid; conditions: duplicate
Procedure: as §1, §2, §3, §4, §5

[4] = test system: Glutamate (NMDA phencyclidine site); assay: Radioligand binding, [3H]MK-801; conditions: [3H]MK-801, 1 µM, duplicate
Procedure: as §1, §2, §3, §4, §5

Dopamine D1 = assay: Radioligand binding, [3H]SCH23390; conditions: Dopamine D1, [3H]SCH23390, 1 µM, duplicate
Procedure: as §1, §2, §3, §4, §5

Adenosine A2 = assay: Radioligand binding, [3H]CGS21680; conditions: Adenosine A2, [3H]CGS21680, 1 µM, duplicate
Procedure: as §1, §2, §3, §4, §5

Glutamate (AMPA) = assay: Radioligand binding, [3H]AMPA; conditions: duplicate
Procedure: as §1, §2, §3, §4, §5

GABA -A (Agonist site) = assay: Radioligand binding, [3H]Muscimol; conditions: duplicate
Procedure: as §1, §2, §3, §4, §5

Muscarinic M1 = assay: Radioligand binding, [3H]Pirenzepine; conditions: Muscarinic M1, [3H]Pirenzepine, duplicate
Procedure: as §1, §2, §3, §4, §5

GABA -B = assay: Radioligand binding, [3H]GABA; conditions: duplicate
Procedure: as §1, §2, §3, §4, §5

[5] = 28 standard target binding profile; conditions: 1 µM
Procedure: as §1, §2, §3, §4, §5

Dopamine D2 = assay: Radioligand binding, [3H]Spiperone; conditions: Dopamine D2, [3H]Spiperone, duplicate
Procedure: as §1, §2, §3, §4, §5

[6] = test system: α1-Adrenergic (Non-selective); assay: Radioligand binding, [3H]Prazosin; conditions: duplicate
Procedure: as §1, §2, §3, §4, §5

Serotonin 5-HT2A = assay: Radioligand binding, [3H]Ketanserin; conditions: duplicate
Procedure: as §1, §2, §3, §4, §5

[7] = test system: β-Adrenergic (Non-selective); assay: Radioligand binding, [3H]DHA; conditions: duplicate
Procedure: as §1, §2, §3, §4, §5

[8] = test system: Glutamate (NMDA glycine site); assay: Radioligand binding, [3H]MDL105519; conditions: [3H]MDL105519, 1 µM, duplicate
Procedure: as §1, §2, §3, §4, §5

GlyT-1 [9] = target: T1, GlyT-1; assay: Inhibition of [14C]glycine uptake in rat brain membranes; assay type: biochemical
Procedure: The homogenate was centrifuged at 1,000 g for 10 min to remove nuclei and debris, and then the supernatant was centrifuged again at 20,000 g for 20 min (synaptosomal P2 fraction). The pellet was washed and re-suspended in ice-cold 0.32 M sucrose, buffered with 10 mM HEPES (pH 7.4) and centrifuged again at 20,000 g for 20 min (washed P2 fraction). The pellet was re-suspended in 10 volumes of assay buffer with the following composition: 10 mM HEPES buffer (pH 7.4) containing 140 mM NaCl, 5.5 mM KCl, 1.8 mM CaCl2, 0.8 mM MgSO4, 5 mM glucose and 5 mM L-alanine (HB). The protein concentrations were measured by using a DC protein assay kit (Bio-Rad Laboratories Inc., Tokyo, Japan).
Non-specific uptake was estimated in the presence of 30 µM SSR504734. […] The filters were washed by buffer, and the radioactivity trapped by the filters was determined using a liquid scintillation counter as described above.
as §6

Histamine H2 = assay: Radioligand binding, [3H]Cimetidine; conditions: Histamine H2, [3H]Cimetidine, duplicate
Procedure: as §1, §2, §3, §4, §5

Sigma (Non-selective) = assay: Radioligand binding, [3H]DTG; conditions: duplicate
Procedure: as §1, §2, §3, §4, §5

Serotonin 5-HT3 (Human) = assay: Radioligand binding, [3H]GR65630; conditions: [3H]GR65630, 1 µM, duplicate
Procedure: as §1, §2, §3, §4, §5

[10] = test system: Glutamate (NMDA agonist site); assay: Radioligand binding, [3H]CGP-39653; conditions: [3H]CGP-39653, 1 µM, duplicate
Procedure: as §1, §2, §3, §4, §5

[11] = test system: α2-Adrenergic (Non-selective); assay: Radioligand binding, [3H]RX821002; conditions: [3H]RX821002, 1 µM, duplicate
Procedure: as §1, §2, §3, §4, §5

Histamine H1 (Central) = assay: Radioligand binding, [3H]Pyrilamine; conditions: duplicate
Procedure: as §1, §2, §3, §4, §5

Glutamate (Kainate) = assay: Radioligand binding, [3H]Kainic acid; conditions: duplicate
Procedure: as §1, §2, §3, §4, §5

Opiate (Non-selective) = assay: Radioligand binding, [3H]Naloxone; conditions: duplicate
Procedure: as §1, §2, §3, §4, §5

CN1CCCC[C@@H]1[C@@H](NC(=O)c1nccc(C(F)(F)F)c1Cl)c1ccsc1 [CHIBA-3007, 3-Chloro-N-((S)-((R)-1-methylpiperidin-2-yl)(thiophen-3-yl)methyl)-4-(trifluoromethyl)picolinamide]
% Inhibition (1 µM) (Serotonin 5-HT1A): 35.22%
% Inhibition (1 µM) [1]: 0.00%
% Inhibition (1 µM) (Muscarinic M2): 16.31%
% Inhibition (1 µM) (Nicotinic Ni): 2.10%
% Inhibition (1 µM) (GABA- A (BZ central)): 2.78%
% Inhibition (1 µM) (Histamine H3): 0.00%
% Inhibition (1 µM) (Adenosine A1): 2.12%
Ki (GlyT-1 [2]): 2.8 ± 0.17 nM
% Inhibition (1 µM) [3]: 1.91%
% Inhibition (1 µM) [4]: 3.80%
% Inhibition (1 µM) (Dopamine D1): 2.32%
% Inhibition (1 µM) (Adenosine A2): 5.86%
% Inhibition (1 µM) (Glutamate (AMPA)): 3.27%
% Inhibition (1 µM) (GABA -A (Agonist site)): 0.20%
% Inhibition (1 µM) (Muscarinic M1): 8.35%
% Inhibition (1 µM) (GABA -B): 8.19%
Inhibition in 28 standard target binding profile [5]: lower than 50%
% Inhibition (1 µM) (Dopamine D2): 1.00%
% Inhibition (1 µM) [6]: 1.13%
% Inhibition (1 µM) (Serotonin 5-HT2A): 30.56%
% Inhibition (1 µM) [7]: 8.39%
% Inhibition (1 µM) [8]: 4.02%
IC50 (GlyT-1 [9]): 21.4 ± 8.4 nM
% Inhibition (1 µM) (Histamine H2): 3.80%
% Inhibition (1 µM) (Sigma (Non-selective)): 24.20%
% Inhibition (1 µM) (Serotonin 5-HT3 (Human)): 7.36%
% Inhibition (1 µM) [10]: 8.17%
% Inhibition (1 µM) [11]: 20.98%
% Inhibition (1 µM) (Histamine H1 (Central)): 1.83%
% Inhibition (1 µM) (Glutamate (Kainate)): 1.50%
% Inhibition (1 µM) (Opiate (Non-selective)): 43.44%
